Experimental data reported in ChEMBL document CHEMBL5029185, “Discovery of Novel Polycyclic Heterocyclic Derivatives from Evodiamine for the Potential Treatment of Triple-Negative Breast Cancer” (J Med Chem, 2021).
Active and inactive are the calls of the source. No cut-off for these calls is given here.

Tests used:
MDA-MB-231 [1] = assay: Antiproliferative activity against human MDA-MB-231 cells assessed as inhibition rate at 100 uM incubated for 72 hrs by MTT assay; format: functional
MDA-MB-231 [2] = assay: Antiproliferative activity against human MDA-MB-231 cells assessed as inhibition rate at 1 uM incubated for 72 hrs by MTT assay; format: functional
[3] = target: T1, DNA topoisomerase 1 (Homo sapiens) (UniProt P11387); assay: Inhibition of topoisomerase 1 (unknown origin) assessed as relaxation of supercoiled plasmid pBR322 DNA at 50 uM incubated for 15 mins by agarose gel electrophoresis
T1 sequence (whole entry): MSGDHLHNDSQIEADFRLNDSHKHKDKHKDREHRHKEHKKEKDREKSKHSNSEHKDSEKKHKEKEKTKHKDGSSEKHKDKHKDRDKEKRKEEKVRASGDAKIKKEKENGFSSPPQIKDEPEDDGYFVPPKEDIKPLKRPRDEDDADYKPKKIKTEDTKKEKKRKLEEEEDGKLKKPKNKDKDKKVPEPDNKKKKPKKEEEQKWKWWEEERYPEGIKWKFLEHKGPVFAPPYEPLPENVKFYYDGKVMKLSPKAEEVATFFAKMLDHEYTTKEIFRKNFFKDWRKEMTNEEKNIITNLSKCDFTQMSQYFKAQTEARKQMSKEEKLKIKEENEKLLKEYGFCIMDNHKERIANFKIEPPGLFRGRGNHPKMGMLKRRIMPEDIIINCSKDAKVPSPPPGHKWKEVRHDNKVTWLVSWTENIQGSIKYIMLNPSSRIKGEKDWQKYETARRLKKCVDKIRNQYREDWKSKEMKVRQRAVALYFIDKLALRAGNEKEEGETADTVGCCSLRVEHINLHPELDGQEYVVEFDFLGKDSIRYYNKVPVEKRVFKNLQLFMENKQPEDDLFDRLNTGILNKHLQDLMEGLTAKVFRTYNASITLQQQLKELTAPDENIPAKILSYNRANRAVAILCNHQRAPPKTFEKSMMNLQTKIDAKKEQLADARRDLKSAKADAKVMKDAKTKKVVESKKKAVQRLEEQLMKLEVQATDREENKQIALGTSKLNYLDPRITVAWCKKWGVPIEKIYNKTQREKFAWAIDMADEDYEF

[4] = target: T1, DNA topoisomerase 1 (Homo sapiens); assay: Inhibition of topoisomerase 1 (unknown origin) assessed as relaxation of supercoiled plasmid pBR322 DNA at 20 uM incubated for 15 mins by agarose gel electrophoresis
[5] = target: T1, DNA topoisomerase 1 (Homo sapiens); assay: Inhibition of topoisomerase 1 (unknown origin) assessed as relaxation of supercoiled plasmid pBR322 DNA upto 500 uM incubated for 15 mins by agarose gel electrophoresis; conditions: dose microM <=500, time 15.0 min
[6] = target: DNA topoisomerase 2-alpha (Homo sapiens) (UniProt P11388); assay: Inhibition of topoisomerase 2 (unknown origin) assessed as relaxation of supercoiled kDNA at 100 to 500 uM incubated for 30 mins by agarose gel electrophoresis; conditions: dose 100-500 µM
Sequence of DNA topoisomerase 2-alpha (Homo sapiens) (P11388 whole entry): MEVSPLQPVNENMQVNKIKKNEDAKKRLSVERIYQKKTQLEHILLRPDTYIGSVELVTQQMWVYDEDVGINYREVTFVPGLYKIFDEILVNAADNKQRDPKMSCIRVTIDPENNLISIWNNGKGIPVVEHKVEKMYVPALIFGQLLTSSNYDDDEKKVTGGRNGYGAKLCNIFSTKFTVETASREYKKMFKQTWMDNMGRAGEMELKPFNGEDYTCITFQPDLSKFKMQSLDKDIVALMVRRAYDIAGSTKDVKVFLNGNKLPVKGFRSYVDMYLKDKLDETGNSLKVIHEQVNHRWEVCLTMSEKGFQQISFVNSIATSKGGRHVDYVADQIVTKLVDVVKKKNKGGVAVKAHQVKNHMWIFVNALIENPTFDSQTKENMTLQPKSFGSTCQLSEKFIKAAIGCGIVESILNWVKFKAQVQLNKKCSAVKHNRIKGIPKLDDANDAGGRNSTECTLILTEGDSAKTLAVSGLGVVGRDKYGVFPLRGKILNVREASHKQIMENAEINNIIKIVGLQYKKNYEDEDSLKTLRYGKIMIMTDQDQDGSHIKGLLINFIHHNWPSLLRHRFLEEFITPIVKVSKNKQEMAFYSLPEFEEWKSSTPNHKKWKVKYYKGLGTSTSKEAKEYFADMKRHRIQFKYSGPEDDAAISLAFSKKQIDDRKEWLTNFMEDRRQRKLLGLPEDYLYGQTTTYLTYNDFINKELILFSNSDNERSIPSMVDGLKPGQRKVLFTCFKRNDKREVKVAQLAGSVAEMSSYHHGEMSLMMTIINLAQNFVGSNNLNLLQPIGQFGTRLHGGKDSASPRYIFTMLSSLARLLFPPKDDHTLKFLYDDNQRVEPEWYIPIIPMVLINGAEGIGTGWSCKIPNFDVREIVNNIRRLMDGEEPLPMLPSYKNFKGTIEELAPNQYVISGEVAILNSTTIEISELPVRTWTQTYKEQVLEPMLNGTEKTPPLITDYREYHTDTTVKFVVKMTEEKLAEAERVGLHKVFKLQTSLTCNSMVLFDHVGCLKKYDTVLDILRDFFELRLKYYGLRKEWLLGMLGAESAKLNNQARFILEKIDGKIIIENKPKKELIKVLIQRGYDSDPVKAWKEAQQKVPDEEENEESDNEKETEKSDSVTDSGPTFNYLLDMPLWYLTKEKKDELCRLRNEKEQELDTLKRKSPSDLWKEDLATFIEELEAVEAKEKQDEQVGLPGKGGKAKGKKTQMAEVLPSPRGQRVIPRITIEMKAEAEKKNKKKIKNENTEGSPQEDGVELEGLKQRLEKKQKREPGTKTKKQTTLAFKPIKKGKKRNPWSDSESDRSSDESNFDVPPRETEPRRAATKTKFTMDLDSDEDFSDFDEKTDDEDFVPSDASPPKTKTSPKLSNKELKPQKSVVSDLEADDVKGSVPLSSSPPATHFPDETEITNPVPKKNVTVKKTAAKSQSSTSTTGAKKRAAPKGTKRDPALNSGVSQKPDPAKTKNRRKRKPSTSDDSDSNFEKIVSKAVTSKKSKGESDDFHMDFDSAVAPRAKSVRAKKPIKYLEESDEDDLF

[7] = target: T1, DNA topoisomerase 1 (Homo sapiens); assay: Induction of topoisomerase 1-DNA cleavable complex in human MDA-MB-231 cells assessed as increase in cleavable complex by measuring SDS-K+ precipitable complex at 15 uM measured up to 15 hrs by liquid scintillation counting analysis; format: cell-based; conditions: time hrs <=15
[8] = target: T1, DNA topoisomerase 1 (Homo sapiens); assay: Induction of topoisomerase 1-DNA cleavable complex in human MDA-MB-231 cells assessed as decrease in free Top1 in nuclear extract at 30 uM measured up to 9 hrs by Immunoband depletion assay; format: cell-based; conditions: time hrs <=9
MDA-MB-231 [9] = assay: Antiproliferative activity against human MDA-MB-231 cells transfected with siRNA-Top1 assessed as cell viability by MTT assay; format: functional, cell-based
MDA-MB-231 [10] = assay: Induction of ROS generation in human MDA-MB-231 cells by fluorescent dye […] based flow cytometry; format: functional, cell-based
MDA-MB-231 [11] = assay: Induction of ROS generation in human MDA-MB-231 cells transfected with siRNA-Top1 by fluorescent dye […] based flow cytometry; format: functional, cell-based
MDA-MB-231 [12] = assay: Induction of DNA damage in human MDA-MB-231 cells assessed as ROS-mediated oxidative DNA lesions at 0.4 uM measured after 12 hrs by alkaline comet assay; format: functional, cell-based
MDA-MB-231 [13] = assay: Induction of apoptosis in human MDA-MB-231 cells assessed as changes in cell morphology and nuclei at 0.1 to 0.4 uM by Hoechst 33342 staining based fluorescence microscopy; format: functional; conditions: dose 0.1-0.4 µM
MDA-MB-231 [14] = assay: Induction of mitochondrial membrane disruption in human MDA-MB-231 cells assessed as mitochondrial dysfunction at 0.1 uM measured after 48 hrs by JC-1 staining based flow cytometry (reference value: 3%); format: functional
MDA-MB-231 [15] = assay: Induction of apoptosis in human MDA-MB-231 cells assessed as increase in Bax expression at 0.1 to 0.4 uM measured after 48 hrs by Western blot analysis; format: functional, cell-based; conditions: dose 0.1-0.4 µM
MDA-MB-231 [16] = assay: Induction of apoptosis in human MDA-MB-231 cells assessed as increase in cleaved caspase-3 expression at 0.1 to 0.4 uM measured after 48 hrs by Western blot analysis; format: functional, cell-based; conditions: dose 0.1-0.4 µM
MDA-MB-231 [17] = assay: Induction cell cycle arrest in human MDA-MB-231 cells assessed as accumulation at G2 phase at 0.1 uM measured after 48 hrs by PI staining based flow cytometry (reference value: 10.2%); format: functional
MDA-MB-231 [18] = assay: Induction cell cycle arrest in human MDA-MB-231 cells assessed as accumulation at G1 phase at 0.2 uM measured after 48 hrs by PI staining based flow cytometry (reference value: 53.7%); format: functional
MDA-MB-231 [19] = assay: Induction cell cycle arrest in human MDA-MB-231 cells assessed as accumulation at G2 phase at 0.2 uM measured after 48 hrs by PI staining based flow cytometry (reference value: 10.2%); format: functional
MDA-MB-231 [20] = assay: Induction cell cycle arrest in human MDA-MB-231 cells assessed as accumulation at S phase at 0.2 uM measured after 48 hrs by PI staining based flow cytometry (reference value: 36%); format: functional
MDA-MB-231 [21] = assay: Induction cell cycle arrest in human MDA-MB-231 cells assessed as accumulation at G1 phase at 0.4 uM measured after 48 hrs by PI staining based flow cytometry (reference value: 53.7%); format: functional
MDA-MB-231 [22] = assay: Induction cell cycle arrest in human MDA-MB-231 cells assessed as accumulation at S phase at 0.4 uM measured after 48 hrs by PI staining based flow cytometry (reference value: 36%); format: functional
MDA-MB-231 [23] = assay: Effect on PI3K expression in human MDA-MB-231 cells at 0.4 uM measured after 48 hrs by Western blot analysis; format: functional, cell-based
MDA-MB-231 [24] = assay: Inhibition of PI3K in human MDA-MB-231 cells assessed as Akt phosphorylation at 0.4 uM measured after 48 hrs by Western blot analysis; format: cell-based
MDA-MB-231 [25] = assay: Induction of apoptosis in human MDA-MB-231 cells assessed as increase in cleaved PARP level at 0.4 uM incubated for 48 hrs by Western blot analysis; format: functional, cell-based
HEK293 = assay: cells; format: ADME, cell-based; conditions: Homo sapiens, HEK293, 72 h
Description: Antiproliferative activity against HEK293 cells assessed as inhibition rate incubated for 72 hrs by MTT assay

Breast carcinoma cell = assay: Antitumour activity against human TNBC breast carcinoma cell tissue xenografted PDTX SCID mouse model assessed as reduction in cancer cell density at 5 to 20 mg/kg treated for 7 days; format: functional, organism-based; conditions: dose 5-20 mg/kg, time 7.0 day

inhibition [3]: Active | inhibition [4]: Active | Activity [5]: inactive | inhibition [6]: inactive | Activity [7]: Active | Activity [8]: Active | IC50 (MDA-MB-231 [9]): 9.7 µM
SMILES: O=C1c2cc(Cl)ccc2OC2c3oc4ccc(O)cc4c3CCN12 (configuration not stated)
inhibition at 100 µM (MDA-MB-231 [1]): 95.8% | inhibition at 1 µM (MDA-MB-231 [2]): 82.4% | Activity (MDA-MB-231 [10]): Active | Activity (MDA-MB-231 [11]): Active | Activity (MDA-MB-231 [12]): Active | Activity (MDA-MB-231 [13]): Active | Activity (MDA-MB-231 [14]): 12.2% | Activity (MDA-MB-231 [15]): Active | Activity (MDA-MB-231 [16]): Active | Activity (MDA-MB-231 [17]): 7.2% | Activity (MDA-MB-231 [18]): 72.3% | Activity (MDA-MB-231 [19]): 5.3% | Activity (MDA-MB-231 [20]): 22.4% | Activity (MDA-MB-231 [21]): 70.2% | Activity (MDA-MB-231 [22]): 22.9% | Activity (MDA-MB-231 [23]): inactive | inhibition (MDA-MB-231 [24]): Active | Activity (MDA-MB-231 [25]): Active | IC50 (HEK293): 35.5 µM | Activity (Breast carcinoma cell): Active
